Key:
[1] = molecular target: T1, TRANCE-R signaling complex (Mus musculus, UniProt O35305); experiment: TRANCE-R immunoprecipitation from dendritic cells: co-precipitated TRAF6/c-Src and SAM68 kinase assay; assay type: cell-based
T1 construct: the endogenous TRANCE-R was immunoprecipitated from the extracts (2 mg of total protein); endogenous in cells; host or cells: mature bone marrow-derived dendritic cells of C57BL/6 mice
Method: FIG. 5. Ligand dependant recruitment of endogenous TRAF6 and c-Src proteins to the TRANCE-R signaling complex. (A) Dendritic cells were stimulated with TRANCE (1 μg/ml) for the indicated times, lysed, and c-Src was immunoprecipitated from the extracts (400 μg total protein), using an anti-c-Src-specific monoclonal antibody (327). PTK activity of the c-Src immunoprecipitates was measured by in vitro kinase assays using SAM68 as a PTK substrate. The degree of SAM68 phosphorylation (SAM68^P) was determined by Western blot analysis using a phospho-tyrosine specific antibody (4G10) followed by densitometry. (B) Dendritic cells (3×10^7) were treated with TRANCE (1 μg/ml) for 5 minutes or left untreated (0 minutes). […] The degree of SAM68 phosphorylation (SAM68^P) was determined as in (A). The presence of endogenous TRAF6 or c-Src in the remaining α-TRANCE-R immunoprecipitates (IP) were analyzed by Western blotting using TRAF6 (H-274) and c-Src specific antibodies (N16), respectively, as indicated. […]
For the in vitro kinase-assays in FIGS. 3A, 4D, and 5B the beads were washed twice with extraction buffer and three times with kinase buffer (30 mM HEPES.NaOH (pH 7.4), 20 mM MgCl2, 2 mM MnCl2, 1 mM dithiothreitol). […] Phosphorylation of SAM68 was detected by autoradiography or by probing Western blots with 4G10. […]

PKB = PKB activation in osteoclasts (phospho-PKB Western blot); assay type: cell-based, mouse
Method: FIG. 1. […] (A) Mature bone marrow-derived osteoclasts were stimulated for the indicated times with recombinant hCD8-TRANCE (TRANCE; 1 μg/ml). Levels of phosphorylated forms of p44/p42 ERK (p44 ERK^P and p42 ERK^P), IκBα (IκB-α^P) and PKB (PKB^P) in whole cell extracts were determined using phospho-peptide-specific antibodies as indicated in the figure. […] (B) as in (A) except the use of mature bone marrow-derived dendritic cells instead of osteoclasts.
FIG. 2. […] (A) Osteoclasts were serum starved and then pretreated for 90 min with LY294002 (10 μM), Herbimycin A (Herb. A; 10 μM), and PP1 (10 μM) inhibitors which are specific for PI3-kinase, PTKs, and Src-family kinases, respectively, were stimulated for indicated times with TRANCE (1 μg/ml). Levels of phosphorylated p44/p42 ERK, PKB, and IκB-α were determined as described in FIG. 1. Cells pretreated with vehicle (DMSO) were used as a negative control. (B) as in (A) except the use of mature bone marrow-derived dendritic cells.
Primary cells and cell lines. […] In brief, bone marrow cells from tibiae and femur of 4-6 week old mice (C57BL/6, Jackson Laboratories) were cultured overnight in media (α-MEM, 10% FCS) in the presence of CSF-1 (5 ng/ml). […] For experiments described in this study, only adherent cells were used after extensive washing. […] After allowing them adhere for 2 hours to a tissue culture dish, contaminating floater cells were washed away and mature dendritic cells were obtained by overnight culture.
Cell stimulation, cell transfection and in vitro assays. In vitro differentiated mature dendritic cells, macrophages and osteoclasts were washed to remove exogenous growth factors, cultured in media with low serum (0.5% FCS, 6 hours), then stimulated by adding various cytokines in the presence or absence of inhibitors for various times as indicated. After stimulation, the cells were washed in ice-cold PBS, and subjected to Western blot analysis or immunoprecipitation as described below.
All cells were harvested and lysed in extraction buffer (20 mM HEPES NaOH (pH 7.4), 150 mM NaCl, 1% Triton X-100, 10% glycerol, 10 mM EDTA, 1 mM Na3VO4, 1 mM phenylmethylsulfonylfluoride, 1 μg/ml leupeptin, and 0.1 U of aprotinin per ml) and cleared by centrifugation to obtain whole cell extracts. Protein assays were performed to ensure equal amounts of lysates were used in each sample.

Q: For “TNF-related activation-induced cytokine [TRANCE]”, which “TRAF6 and c-Src in the TRANCE-R complex” value ([1]; TRANCE 1 μg/ml 5 minutes vs untreated) is on record?
A: Its value is “readily detected”.

Q: And the “PTK activity of the receptor complex towards SAM68” value ([1]; TRANCE 1 μg/ml 5 minutes, in vitro kinase assay)?
A: Its value is “acquired PTK activity”.

Q: What about the “activation of PKB in c-Src−/− osteoclasts compared with wild-type” value (PKB; TRANCE 5 μg/ml, 10 min) of the same substance?
A: Its value is “substantially reduced”.

Q: And the “time by which PKB activity subsided” value (PKB; osteoclasts, TRANCE stimulation)?
A: The value was no more than 60 min.

Q: And the “phosphorylated form of PKB upon TRANCE stimulation” value (PKB; osteoclasts, after 5 minutes, TRANCE 1 μg/ml)?
A: Its value is “increase”.
